Measurements taken from patent US4237273A, “Bis(nitrosoureido)-polyol derivatives” (Richter Gedeon Vegyeszeti Gyar RT, priority 1977, dated 1980).
Read-outs that look alike come from different tables or passages of the source.

What was measured:
[1] = Acute toxicity (LD50), 21 days observation; type: in vivo; settings: mouse, in vivo, BDF1 mice of both sexes
Protocol: Species: BDF1 mice of both sexes
Treatment: a volume of 0.2 ml./10 g. body weight of a suspension of the tested compounds in water containing 2% of Tween-80 was used.
Number of animals: 10/dose
Observation time: 21 days

[2] = test system: Rausher leukemia; assay: Antitumour activity, Rauscher leukemia, spleen weight (Table 3); type: in vivo, CFLP mice; settings: from the 2nd day
Protocol: (§1) The leukemia and ascites type tumours were transplanted intraperitoneally, using an amount of 10^5 -10^7 cells, while in the case of solid tumours, small pieces of tumours were implanted subcutaneously with a trocar. Treatment:
(§2) Mice were treated with a volume of 0.1 ml./10 g. body-weight of a suspension of the tested compounds in water containing 2% of Tween-80, while rats were treated with a volume of 0.1 ml./100 g. bodyweight of a suspension of the tested compounds in water containing 5% of Tween-80.
(§3) In the case of solid tumours (Harding-Passey melanoma, S-180 and Yoshida sarcoma) the tumours were removed on the 8 to 14th day, and the inhibition was calculated by the weight of the tumours, using the following formula: [formula]
A similar method was applied in the case of the Rauscher leukemia too, but the weight of the spleen was taken, instead of the tumour, in the formula mentioned above.

[3] = test system: Yoshida s.c. sarcoma; assay: Antitumour activity, Yoshida s.c. sarcoma, tumour weight (Table 3); type: in vivo, CFY rats; settings: from the 2nd day
Protocol: as §1, §2, §3

[4] = test system: Ehrlich ascites carcinoma; assay: Way of activity: thymidine index (3H-thymidine incorporation into DNS) in Ehrlich ascites carcinoma; type: in vivo, Mice; settings: i.p. on 6th day, equitoxic doses
Protocol: (§4) Mice, being infected with Ehrlich ascites carcinoma, were treated intraperitoneally on the 6th day after transplantation with equitoxic doses of compounds 1, 2 and 6. The duration of the activity was investigated by determining the total cell number and the way of action by determining the mitosis index* and the thymidine index**. It could be shown that both compounds 1 and 2 inhibit the increase of the total cell number for 35 days, while a similar inhibition of the reference compound 6 lasts only for 17 days. As far as the quality of the activity is concerned, compounds 1 and 2 decrease the mitosis-index and the thymidine index in 24 hours by 90%, while in the case of compound 6 the decrease amounts only to 45 to 50%, and the maximum is reached on the 4th day.
**thymidine index=^3 H-thymidine incorporation into the DNS of the tumour cell.

[5] = test system: L-120 leukemia; assay: Antitumour activity, L-1210 leukemia (Table 2); type: in vivo, BDF1 mice; settings: for Increase in life span / Recovery (90 day survival): from the 2nd day; for Recovery (90 day survival): animals recovered/treated
Protocol: as §1, §2
(§5) The ascites and leukemia-type tumours were evaluated with the exception of the Rausher leukemia by the increase of the life span and by complete recovery. [formula]
(§6) Recovery=90 days of tumour free life after transplantation.

[6] = test system: Ehrlich ascites carcinoma; assay: Duration of activity: total cell number in Ehrlich ascites carcinoma; type: in vivo, Mice; settings: i.p. on the 6th day after transplantation, equitoxic doses
Protocol: as §4

[7] = test system: Developed Yoshida s.c. sarcoma; assay: Recovery from developed Yoshida s.c. sarcoma, treated on 6th day (Table 4); type: in vivo, CFY rats; settings: for Recovery (90 day survival): 30 mg./kg. 1× i.p. on 6th day, animals recovered/treated
Protocol: as §1, §2, §6

[8] = test system: S-180 s.c. sarcoma; assay: Antitumour activity, S-180 s.c. sarcoma, tumour weight (Table 3); type: in vivo, CFLP mice; settings: from the 2nd day
Protocol: as §1, §2, §3

[9] = test system: Ehrlich acites carcinoma; assay: Antitumour activity, Ehrlich ascites carcinoma (Table 2); type: in vivo, CFLP mice; settings: from the 2nd day; for Recovery (90 day survival): animals recovered/treated
Protocol: as §1, §2, §5, §6

[10] = test system: Harding-Passey melanoma; assay: Antitumour activity, Harding-Passey melanoma, tumour weight (Table 3); type: in vivo, CFLP mice; settings: from the 4th day after transplantation
Protocol: as §1, §2, §3

[11] = test system: P-388 leukemia; assay: Antitumour activity, P-388 leukemia (Table 2); type: in vivo, BDF1 mice; settings: from the 2nd day; for Recovery (90 day survival): animals recovered/treated
Protocol: as §1, §2, §5, §6

[12] = test system: NK/Ly ascites lymphoma; assay: Antitumour activity, NK/Ly ascites lymphoma (Table 2); type: in vivo, CFLP mice; settings: from the 2nd day; for Recovery (90 day survival): animals recovered/treated
Protocol: as §1, §2, §5, §6

[13] = test system: Ehrlich ascites carcinoma; assay: Way of activity: mitosis index in Ehrlich ascites carcinoma; type: in vivo, Mice; settings: i.p. on 6th day, equitoxic doses
Protocol: as §4
*mitosis index=number of dividing cells/1000 tumour cells

[14] = ip, i.p., read-out: LD50 value i.p.
[15] = po, p.o., read-out: LD50 value p.o.

SMILES | LD50 at 504 h [1, 14] [mg/kg] | LD50 at 504 h [1, 15] [mg/kg] | Inhibition (spleen weight) ([2]; 10.0 mg./kg. 4× i.p.) [%] | Inhibition (spleen weight) ([2]; 10.0 mg./kg. 4× p.o.) [%] | Inhibition (tumour weight) ([3]; 3 mg./kg. 4× p.o.) [%] | Inhibition (tumour weight) ([3]; 10 mg./kg. 4× i.p.) [%] | Increase in life span ([5]; 3.0 mg./kg. 4× i.p.) [%] | Recovery (90 day survival) ([5]; 3.0 mg./kg. 4× i.p.) | Increase in life span ([5]; 10.0 mg./kg. 4× i.p.) [%] | Recovery (90 day survival) ([5]; 10.0 mg./kg. 4× i.p.) | Duration of inhibition of the increase of the total cell number [6] [days] | Recovery (90 day survival) [7] | Inhibition (tumour weight) ([8]; 10.0 mg./kg. 5× i.p.) [%] | Increase in life span ([9]; 1.0 mg./kg. 5× i.p.) [%] | Recovery (90 day survival) ([9]; 1.0 mg./kg. 5× i.p.) | Inhibition (tumour weight) ([10]; 10.0 mg./kg. 9× p.o.) [%] | Recovery (90 day survival) ([12]; 0.3 mg./kg. 4× i.p.) | Increase in life span ([5]; 10.0 mg./kg. 4× p.o.) [%] | Recovery (90 day survival) ([5]; 10.0 mg./kg. 4× p.o.) | Inhibition (spleen weight) ([2]; 10.0 mg./kg. 6× i.p.) [%] | further results
O=NN(CCCl)C(=O)NC[C@@H](O)[C@H](O)CN(N=O)C(=O)NCCCl (racemic) [Compound 4, 1-[3-(2-chloroethyl)-3-nitrosoureido]-4-[3-(2-chloroethyl)-1-nitrosoureido]-1,4-dideoxy-D,L-threitol] | 80 | 130 | 100 | 100 | 50 | 82 | – | – | – | – | – | – | – | – | – | – | – | – | – | – | –
O=NN(CCCl)C(=O)NC[C@@H](O)[C@H](O)CNC(=O)N(CCCl)N=O (racemic) [Compound 5, 1,4-bis[3-(2-chloroethyl)-3-nitrosoureido]-1,4-dideoxy-D,L-threitol] | 40 | 75 | – | 100 | 62 | – | – | – | – | – | – | – | – | – | – | – | – | – | – | – | Inhibition (spleen weight) ([2]; 3.0 mg./kg. 4× i.p.): 75%; Inhibition (tumour weight) ([3]; 10 mg./kg. 2× p.o.): 99%
O=NN(CCCl)C(=O)NC[C@@H](O)[C@@H](O)[C@H](O)[C@H](O)CNC(=O)N(CCCl)N=O [Compound 2, 1,6-bis[3-(3-chloroethyl)-N-nitrosoureido]-1,6-dideoxy-D-mannitol] | 110 | 250 | 86 | – | – | 84 | 158 | 3/10 | 140 | 8/10 | 35 | 4/7 | 56 | 96 | 4/7 | 59 | 6/7 | – | – | – | Decrease of the thymidine index ([4]; in 24 hours): 90%; Increase in life span ([5]; 1.0 mg./kg. 4× i.p.): 58%; Recovery (90 day survival) ([5]; 1.0 mg./kg. 4× i.p.): 0/10; Inhibition (tumour weight) ([8]; 30.0 mg./kg. 5× p.o.): 51%; Inhibition (tumour weight) ([3]; 30 mg./kg. 4× p.o.): 75%; Inhibition (tumour weight) ([10]; 10.0 mg./kg. 9× i.p.): 42%; Increase in life span ([11]; 10.0 mg./kg. 4× i.p.): 131%; Recovery (90 day survival) ([11]; 10.0 mg./kg. 4× i.p.): 0/8; Decrease of the mitosis-index ([13]; in 24 hours): 90%
O=NN(CCCl)C(=O)N[C@H]1C[C@@H](NC(=O)N(CCCl)N=O)[C@H](O)[C@@H](O)[C@@H]1O [Compound 3, 1,3-bis[3-(2-chloroethyl)-N-nitriosoureido]-1,2,3-trideoxyscylloinositol] | 40 | 100 | – | – | – | 86 | – | – | – | – | – | – | – | 46 | 2/7 | 38 | – | 61 | 1/7 | 100 | Increase in life span ([5]; 15.0 mg./kg. 1× i.p.): 180%; Recovery (90 day survival) ([5]; 15.0 mg./kg. 1× i.p.): 5/8; Inhibition (tumour weight) ([10]; 3.0 mg./kg. 9× i.p.): 54%; Increase in life span ([11]; 3.0 mg./kg. 4× i.p.): 101%; Recovery (90 day survival) ([11]; 3.0 mg./kg. 4× i.p.): 0/8; Recovery (90 day survival) ([12]; 0.1 mg./kg. 4× (route not given)): 7/7; Increase in life span ([12]; 10.0 mg./kg. 4× p.o.): 61%; Recovery (90 day survival) ([12]; 10.0 mg./kg. 4× p.o.): 1/7
O=NN(CCCl)C(=O)NCCCl [Compound 6, 1,3-bis(2-chloroethyl)-1-nitrosourea, reference compound] | 36 | 40 | – | – | 45 | 95 | 40 | 0/8 | 405 | 6/7 | 17 | 0/7 | 65 | – | – | – | 0/7 | 106 | 1/8 | 97 | Day on which the maximum decrease of the thymidine index is reached [4]: 4 days; Increase in life span ([5]; 24.0 mg./kg. 1× p.o.): 48%; Recovery (90 day survival) ([5]; 24.0 mg./kg. 1× p.o.): 0/8; Activity on L-1210 leukemia on oral application, in words ([5]; oral): only an unsignificant oral activity; Cure of Yoshida subcutaneous sarcoma, in words ([7]; single dose on the 6th day): inactive; Inhibition (tumour weight) ([8]; 10.0 mg./kg. 5× p.o.): 32%; Increase in life span ([9]; 3.0 mg./kg. 5× i.p.): 60%; Recovery (90 day survival) ([9]; 3.0 mg./kg. 5× i.p.): 1/6; Inhibition (tumour weight) ([3]; 10 mg./kg. 4× p.o.): 100%; Inhibition (tumour weight) ([10]; 3.0 mg./kg. 9× i.p.): 64%; Inhibition (tumour weight) ([10]; 3.0 mg./kg. 9× p.o.): 71%; Increase in life span ([11]; 3.0 mg./kg. 4× i.p.): 51%; Recovery (90 day survival) ([11]; 3.0 mg./kg. 4× i.p.): 0/8; Recovery (90 day survival) ([12]; 1.0 mg./kg. 4× i.p.): 5/7; Recovery (90 day survival) ([12]; 3.0 mg./kg. 4× i.p.): 7/7; Day on which the maximum decrease of the mitosis-index is reached [13]: 4 days
